In the supplement of paper PMC10627819:

How the values were obtained:
B. subtilis 168 [1] = test: fitness (endpoint OD595 vs no drug) (fraction); higher = more growth
Procedure, shortened: (§1)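 Bacterial fitness was scored as optical density at the stationary-phase transition relative to the robust mean of no-drug control wells. Scores are capped at 1. The growth data were OD595 readings every 30 min for 14 h at 37 °C, background-subtracted against the first reading, from 384-well plates inoculated at OD595 0.01 in TSB, LB Lennox or CY.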

S. aureus Newman [2] = test: as above
Procedure, shortened: as §1

S. aureus DSM 20231 = test: Bliss interaction score (quartile over a dose matrix) (fitness difference); higher = more antagonism (negative = synergy)
Procedure, shortened: (§2)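 The Bliss score was calculated by subtracting the expected fitness, the product of single-drug values, from the observed fitness. OD595 at entry into stationary phase, over the plate's robust no-drug mean and capped at 1, served as the fitness readout. Single-drug values were inferred from combination data, and scores are summarised by quartiles across technical, biological and donor/recipient replicates.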

S. pneumoniae D39V = test: as above
Procedure, shortened: as §2

B. subtilis 168 [3] = test: as above
Procedure, shortened: as §2

S. aureus Newman [4] = test: as above
Procedure, shortened: as §2

[5] = first compound 0.25 µg/mL, partner 0.25 µg/mL
[6] = first compound 0.25 µg/mL, partner 0.5 µg/mL
[7] = first compound 0.25 µg/mL, partner 1 µg/mL
[8] = first compound 0.5 µg/mL, partner 0.25 µg/mL
[9] = first compound 0.5 µg/mL, partner 0.5 µg/mL
[10] = first compound 0.5 µg/mL, partner 1 µg/mL
[11] = first compound 0.25 µg/mL, partner 37.5 µg/mL, main component drawn
[12] = first compound 0.25 µg/mL, partner 75 µg/mL, main component drawn
[13] = first compound 0.5 µg/mL, partner 37.5 µg/mL, main component drawn
[14] = first compound 0.5 µg/mL, partner 75 µg/mL, main component drawn
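Wherever Bliss interaction score (quartile over a dose matrix) is given: first quartile when negative (synergy) and third quartile when positive (antagonism).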

CC[C@H]1OC(=O)[C@H](C)[C@@H](O[C@H]2C[C@@](C)(OC)[C@@H](O)[C@H](C)O2)[C@H](C)[C@@H](O[C@@H]2O[C@H](C)C[C@H](N(C)C)[C@H]2O)[C@](C)(O)C[C@@H](C)CN(C)[C@H](C)[C@@H](O)[C@]1(C)O [Azithromycin] + CC1=C(C(=O)O)N2C(=O)[C@@H](NC(=O)[C@H](N)c3ccccc3)[C@H]2SC1 [Cephalexin]
fitness (B. subtilis 168 [1]; first compound 0.25 µg/mL, partner 0.125 µg/mL): 0.856
fitness (B. subtilis 168 [1]; [5]): 0.936
fitness (B. subtilis 168 [1]; [6]): 0.899
fitness (B. subtilis 168 [1]; [7]): ≥ 1
fitness (B. subtilis 168 [1]; first compound 0.5 µg/mL, partner 0.125 µg/mL): 0.823
fitness (B. subtilis 168 [1]; [8]): 0.845
fitness (B. subtilis 168 [1]; [9]): 0.849
fitness (B. subtilis 168 [1]; [10]): 0.867
fitness (B. subtilis 168 [1]; first compound 1 µg/mL, partner 0.125 µg/mL): 0.543
fitness (S. aureus Newman [2]; first compound 0.125 µg/mL, partner 0.25 µg/mL): 0.892
fitness (S. aureus Newman [2]; first compound 0.125 µg/mL, partner 0.5 µg/mL): 0.918
fitness (S. aureus Newman [2]; first compound 0.125 µg/mL, partner 1 µg/mL): 0.907
fitness (S. aureus Newman [2]; [5]): 0.893
fitness (S. aureus Newman [2]; [6]): 0.915
fitness (S. aureus Newman [2]; [7]): 0.913
fitness (S. aureus Newman [2]; [8]): 0.739
fitness (S. aureus Newman [2]; [9]): 0.719
fitness (S. aureus Newman [2]; [10]): 0.728
Bliss interaction score (S. aureus DSM 20231): -0.0843
Bliss interaction score (S. pneumoniae D39V): -0.0716
Bliss interaction score (B. subtilis 168 [3]): 0.0757
Bliss interaction score (S. aureus Newman [4]): 0.0763

CC[C@H]1OC(=O)[C@H](C)[C@@H](O[C@H]2C[C@@](C)(OC)[C@@H](O)[C@H](C)O2)[C@H](C)[C@@H](O[C@@H]2O[C@H](C)C[C@H](N(C)C)[C@H]2O)[C@](C)(O)C[C@@H](C)CN(C)[C@H](C)[C@@H](O)[C@]1(C)O [Azithromycin] + CC(C1CCC(C(O1)OC2C(CC(C(C2O)OC3C(C(C(CO3)(C)O)NC)O)N)N)N)NC [Gentamicin]
fitness (B. subtilis 168 [1]; first compound 0.25 µg/mL, partner 0.0625 µg/mL, main component drawn): 0.847
fitness (B. subtilis 168 [1]; first compound 2 µg/mL, partner 0.0625 µg/mL, one replicate, main component drawn): 0.482
fitness (B. subtilis 168 [1]; first compound 2 µg/mL, partner 0.125 µg/mL, one replicate, main component drawn): 0.322
fitness (B. subtilis 168 [1]; first compound 2 µg/mL, partner 0.25 µg/mL, one replicate, main component drawn): 0.337
fitness (S. aureus Newman [2]; first compound 0.125 µg/mL, partner 0.375 µg/mL, one replicate, main component drawn): 0.946
fitness (S. aureus Newman [2]; first compound 0.125 µg/mL, partner 0.5 µg/mL, main component drawn): 0.879
fitness (S. aureus Newman [2]; first compound 0.125 µg/mL, partner 0.75 µg/mL, one replicate, main component drawn): 0.936
fitness (S. aureus Newman [2]; first compound 0.125 µg/mL, partner 1 µg/mL, main component drawn): 0.899
fitness (S. aureus Newman [2]; first compound 0.125 µg/mL, partner 1.5 µg/mL, one replicate, main component drawn): 0.954
fitness (S. aureus Newman [2]; first compound 0.125 µg/mL, partner 2 µg/mL, main component drawn): 0.942
fitness (S. aureus Newman [2]; first compound 0.25 µg/mL, partner 0.375 µg/mL, one replicate, main component drawn): ≥ 1
fitness (S. aureus Newman [2]; first compound 0.25 µg/mL, partner 0.5 µg/mL, main component drawn): 0.851
fitness (S. aureus Newman [2]; first compound 0.25 µg/mL, partner 0.75 µg/mL, one replicate, main component drawn): 0.943
fitness (S. aureus Newman [2]; first compound 0.25 µg/mL, partner 1 µg/mL, main component drawn): 0.901
fitness (S. aureus Newman [2]; first compound 0.25 µg/mL, partner 1.5 µg/mL, one replicate, main component drawn): 0.911
fitness (S. aureus Newman [2]; first compound 0.25 µg/mL, partner 2 µg/mL, main component drawn): 0.958
fitness (S. aureus Newman [2]; first compound 0.5 µg/mL, partner 0.375 µg/mL, one replicate, main component drawn): 0.711
fitness (S. aureus Newman [2]; first compound 0.5 µg/mL, partner 0.5 µg/mL, main component drawn): 0.742
fitness (S. aureus Newman [2]; first compound 0.5 µg/mL, partner 0.75 µg/mL, one replicate, main component drawn): 0.62
fitness (S. aureus Newman [2]; first compound 0.5 µg/mL, partner 1 µg/mL, main component drawn): 0.827
fitness (S. aureus Newman [2]; first compound 0.5 µg/mL, partner 1.5 µg/mL, one replicate, main component drawn): 0.571
fitness (S. aureus Newman [2]; first compound 0.5 µg/mL, partner 2 µg/mL, main component drawn): 0.79
Bliss interaction score (S. aureus DSM 20231; main component drawn): 0.106
Bliss interaction score (S. pneumoniae D39V; main component drawn): -0.0659
Bliss interaction score (B. subtilis 168 [3]; main component drawn): 0.305
Bliss interaction score (S. aureus Newman [4]; main component drawn): 0.118

CC[C@H]1OC(=O)[C@H](C)[C@@H](O[C@H]2C[C@@](C)(OC)[C@@H](O)[C@H](C)O2)[C@H](C)[C@@H](O[C@@H]2O[C@H](C)C[C@H](N(C)C)[C@H]2O)[C@](C)(O)C[C@@H](C)CN(C)[C@H](C)[C@@H](O)[C@]1(C)O [Azithromycin] + CC[C@H](C)[C@H](N)C1=N[C@H](C(=O)N[C@@H](CC(C)C)C(=O)N[C@H](CCC(=O)O)C(=O)N[C@H](C(=O)N[C@H]2CCCCNC(=O)[C@H](CC(N)=O)NC(=O)[C@@H](CC(=O)O)NC(=O)[C@H](Cc3cnc[nH]3)NC(=O)[C@@H](Cc3ccccc3)NC(=O)[C@H]([C@@H](C)CC)NC(=O)[C@@H](CCCN)NC2=O)[C@@H](C)CC)CS1 [Bacitracin]
fitness (B. subtilis 168 [1]; [11]): 0.907
fitness (B. subtilis 168 [1]; [12]): 0.845
fitness (B. subtilis 168 [1]; first compound 0.25 µg/mL, partner 150 µg/mL, main component drawn): 0.837
fitness (B. subtilis 168 [1]; [13]): 0.773
fitness (B. subtilis 168 [1]; [14]): 0.76
fitness (B. subtilis 168 [1]; first compound 2 µg/mL, partner 37.5 µg/mL, one replicate, main component drawn): 0.0502
fitness (B. subtilis 168 [1]; first compound 2 µg/mL, partner 75 µg/mL, one replicate, main component drawn): 0.0262
fitness (B. subtilis 168 [1]; first compound 2 µg/mL, partner 150 µg/mL, one replicate, main component drawn): 0.0177
fitness (S. aureus Newman [2]; first compound 0.125 µg/mL, partner 18.75 µg/mL, main component drawn): 0.654
fitness (S. aureus Newman [2]; first compound 0.125 µg/mL, partner 75 µg/mL, main component drawn): 0.0145
fitness (S. aureus Newman [2]; [11]): 0.0979
fitness (S. aureus Newman [2]; [12]): 0.0091
fitness (S. aureus Newman [2]; [13]): 0.0136
fitness (S. aureus Newman [2]; [14]): 0.0029
Bliss interaction score (S. aureus DSM 20231; main component drawn): -0.0556
Bliss interaction score (S. pneumoniae D39V; main component drawn): 0.0418
Bliss interaction score (B. subtilis 168 [3]; main component drawn): 0.0819
Bliss interaction score (S. aureus Newman [4]; main component drawn): -0.101
